Measured values reported in PubChem BioAssay (NCI).
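48-hour exposure; five concentrations; linearly interpolated endpoints. Here, GI50 denotes the concentration required for 50% inhibition of growth. TGI is the concentration that stops growth completely.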

Tests used:
Assay in all cases: growth of human tumour cells (NCI), 48 h
[1] = test system: 786-0 renal
[2] = test system: A498 renal
[3] = test system: A549 NSCLC
[4] = test system: ACHN renal
[5] = test system: BT-549 breast
[6] = test system: CAKI-1 renal
[7] = test system: CCRF-CEM leukemia
[8] = test system: COLO 205 colon
[9] = test system: DU-145 prostate
[10] = test system: EKVX NSCLC
[11] = test system: HCC-2998 colon
[12] = test system: HCT-116 colon
[13] = test system: HCT-15 colon
[14] = test system: HL-60(TB) leukemia
[15] = test system: HOP-62 NSCLC
[16] = test system: HOP-92 NSCLC
[17] = test system: HS 578T breast
[18] = test system: HT29 colon
[19] = test system: IGROV1 ovarian
[20] = test system: K-562 leukemia
[21] = test system: KM12 colon
[22] = test system: LOX IMVI melanoma
[23] = test system: M14 melanoma
[24] = test system: MALME-3M melanoma
[25] = test system: MCF7 breast
[26] = test system: MDA-MB-231 breast
[27] = test system: MDA-MB-435
[28] = test system: MDA-MB-468 breast
[29] = test system: MOLT-4 leukemia
[30] = test system: NCI-H226 lung
[31] = test system: NCI-H23 lung
[32] = test system: NCI-H460 lung
[33] = test system: NCI-H522 lung
[34] = test system: NCI/ADR-RES ovarian
[35] = test system: OVCAR-3 ovarian
[36] = test system: OVCAR-4 ovarian
[37] = test system: OVCAR-5 ovarian
[38] = test system: OVCAR-8 ovarian
[39] = test system: PC-3 prostate
[40] = test system: RPMI-8226 leukemia
[41] = test system: RXF 393 renal
[42] = test system: SF-268 CNS
[43] = test system: SF-295 CNS
[44] = test system: SF-539 CNS
[45] = test system: SK-MEL-2 melanoma
[46] = test system: SK-MEL-28 melanoma
[47] = test system: SK-MEL-5 melanoma
[48] = test system: SK-OV-3 ovarian
[49] = test system: SN12C renal
[50] = test system: SNB-19 CNS
[51] = test system: SNB-75 CNS
[52] = test system: SW-620 colon
[53] = test system: T-47D breast
[54] = test system: TK-10 renal
[55] = test system: U251 CNS
[56] = test system: UACC-257 melanoma
[57] = test system: UACC-62 melanoma
[58] = test system: UO-31 renal

SMILES: Cc1ccccc1[C@H]1C(C(=O)c2ccc(Cl)cc2)C2(N[C@@H]1c1ccccc1)C(=O)Nc1ccc(Cl)cc12 (stereo partly specified)
- GI50 [1]: 5.75 µM
- TGI [1]: 11.1 µM
- GI50 [2]: 6.28 µM
- TGI [2]: 12.5 µM
- GI50 [3]: 5.63 µM
- TGI [3]: 11.5 µM
- GI50 [4]: 5.89 µM
- TGI [4]: 11.1 µM
- GI50 [5]: 5.49 µM
- TGI [5]: 10.9 µM
- GI50 [6]: 4.23 µM
- TGI [6]: 9.47 µM
- GI50 [7]: 9.04 µM
- TGI [7]: 36.8 µM
- GI50 [8]: 5.56 µM
- TGI [8]: 10.9 µM
- GI50 [9]: 6.11 µM
- TGI [9]: 12.7 µM
- GI50 [10]: 4.15 µM
- TGI [10]: 8.85 µM
- GI50 [11]: 5.38 µM
- TGI [11]: 10.5 µM
- GI50 [12]: 5.04 µM
- TGI [12]: 10.2 µM
- GI50 [13]: 5.56 µM
- TGI [13]: 11.1 µM
- GI50 [14]: 9.94 µM
- TGI [14]: 24.2 µM
- GI50 [15]: 5.88 µM
- TGI [15]: 11.3 µM
- GI50 [16]: 4.07 µM
- TGI [16]: 9.11 µM
- GI50 [17]: 6.79 µM
- TGI [17]: 39.5 µM
- GI50 [18]: 5.58 µM
- TGI [18]: 11.4 µM
- GI50 [19]: 4.58 µM
- TGI [19]: 9.64 µM
- GI50 [20]: 7.49 µM
- TGI [20]: 36.4 µM
- GI50 [21]: 6.06 µM
- TGI [21]: 13.5 µM
- GI50 [22]: 5.45 µM
- TGI [22]: 10.5 µM
- GI50 [23]: 6.5 µM
- TGI [23]: 12.6 µM
- GI50 [24]: 5.63 µM
- TGI [24]: 10.9 µM
- GI50 [25]: 4.47 µM
- TGI [25]: 9.78 µM
- GI50 [26]: 5.25 µM
- TGI [26]: 10.4 µM
- GI50 [27]: 6.04 µM
- TGI [27]: 12.1 µM
- GI50 [28]: 4.98 µM
- TGI [28]: 10.1 µM
- GI50 [29]: 4.93 µM
- TGI [29]: 16.9 µM
- GI50 [30]: 5.47 µM
- TGI [30]: 11.2 µM
- GI50 [31]: 5.54 µM
- TGI [31]: 11.1 µM
- GI50 [32]: 7.5 µM
- TGI [32]: 19.5 µM
- GI50 [33]: 5.52 µM
- TGI [33]: 10.8 µM
- GI50 [34]: 5.64 µM
- TGI [34]: 11.4 µM
- GI50 [35]: 3.68 µM
- TGI [35]: 9.82 µM
- GI50 [36]: 5.74 µM
- TGI [36]: 13.7 µM
- GI50 [37]: 5.39 µM
- TGI [37]: 10.6 µM
- GI50 [38]: 6.41 µM
- TGI [38]: 14.5 µM
- GI50 [39]: 4.02 µM
- TGI [39]: 10.6 µM
- GI50 [40]: 8.18 µM
- TGI [40]: 30.2 µM
- GI50 [41]: 1.89 µM
- TGI [41]: 7.25 µM
- GI50 [42]: 4.74 µM
- TGI [42]: 12.1 µM
- GI50 [43]: 5.21 µM
- TGI [43]: 10.2 µM
- GI50 [44]: 6.2 µM
- TGI [44]: 11.7 µM
- GI50 [45]: 5.31 µM
- TGI [45]: 10.5 µM
- GI50 [46]: 6.26 µM
- TGI [46]: 11.8 µM
- GI50 [47]: 6.09 µM
- TGI [47]: 11.7 µM
- GI50 [48]: 5.88 µM
- TGI [48]: 12.2 µM
- GI50 [49]: 4.96 µM
- TGI [49]: 9.93 µM
- GI50 [50]: 6.07 µM
- TGI [50]: 11.6 µM
- GI50 [51]: 4.37 µM
- TGI [51]: 12.6 µM
- GI50 [52]: 6.97 µM
- TGI [52]: 20 µM
- GI50 [53]: 3.66 µM
- TGI [53]: 8.83 µM
- GI50 [54]: 5.3 µM
- TGI [54]: 10.6 µM
- GI50 [55]: 5.85 µM
- TGI [55]: 11.7 µM
- GI50 [56]: 5.82 µM
- TGI [56]: 11.6 µM
- GI50 [57]: 4.6 µM
- TGI [57]: 9.56 µM
- GI50 [58]: 4.48 µM
- TGI [58]: 9.28 µM
